Measured values reported in ChEMBL document CHEMBL3739366, “Discovery of HTL6641, a dual orexin receptor antagonist with differentiated pharmacodynamic properties” (Medchemcomm, 2015).
Activity calls are given as the source filed them. The calls are words filed in the database; no cut-off is given here.

How the values were obtained:
[1] = target: T1, Orexin receptor type 2 (Homo sapiens, UniProt O43614); assay: Displacement of [3H]EMPA from human orexin receptor-2 expressed in HEK293 cells after 90 mins by scintillation counting; format: cell-based
T1 sequence (O43614 whole entry): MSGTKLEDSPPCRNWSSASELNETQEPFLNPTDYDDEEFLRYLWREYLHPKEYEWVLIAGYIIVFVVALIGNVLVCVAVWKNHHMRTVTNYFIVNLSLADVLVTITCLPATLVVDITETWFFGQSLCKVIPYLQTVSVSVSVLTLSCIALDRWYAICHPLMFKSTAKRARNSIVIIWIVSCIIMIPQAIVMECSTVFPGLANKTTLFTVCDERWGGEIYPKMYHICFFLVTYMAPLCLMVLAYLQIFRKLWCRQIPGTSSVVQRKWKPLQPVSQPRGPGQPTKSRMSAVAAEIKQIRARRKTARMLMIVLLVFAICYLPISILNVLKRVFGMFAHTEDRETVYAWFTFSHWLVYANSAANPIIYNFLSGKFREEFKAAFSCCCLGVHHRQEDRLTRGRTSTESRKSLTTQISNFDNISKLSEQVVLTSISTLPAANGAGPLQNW

[2] = target: T2, Orexin/Hypocretin receptor type 1 (Homo sapiens, UniProt O43613); assay: Displacement of [3H]-4-(2,6-Difluoro-4-methoxybenzyl)-2-(5,6-dimethoxypyridin-3-yl)-2H-1,2,4-benzothiadiazin-3(4H)-one 1,1-dioxide from orexin receptor-1 (unknown origin) after 90 mins
T2 sequence (O43613 whole entry): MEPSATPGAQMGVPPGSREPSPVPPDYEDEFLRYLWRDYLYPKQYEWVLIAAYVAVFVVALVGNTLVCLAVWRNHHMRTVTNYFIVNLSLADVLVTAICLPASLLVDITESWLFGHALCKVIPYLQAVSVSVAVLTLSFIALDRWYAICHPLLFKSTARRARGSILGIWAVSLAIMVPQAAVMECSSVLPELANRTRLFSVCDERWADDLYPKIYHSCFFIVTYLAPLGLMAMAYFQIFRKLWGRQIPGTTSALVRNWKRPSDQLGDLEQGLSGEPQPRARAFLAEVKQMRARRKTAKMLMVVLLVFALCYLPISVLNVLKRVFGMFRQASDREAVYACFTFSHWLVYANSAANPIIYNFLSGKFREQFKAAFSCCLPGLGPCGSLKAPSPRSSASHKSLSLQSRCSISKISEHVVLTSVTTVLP

[3] = Half life in rat liver microsomes; format: ADME
[4] = Volume of distribution at steady state in Sprague-Dawley rat at 1 mg/kg, iv; format: ADME, organism-based; settings: in vivo, read-out: Vdss
[5] = Ratio of drug level in brain to plasma in Sprague-Dawley rat at 1 mg/kg, iv after 0.5 hrs; format: ADME, organism-based; settings: read-out: BPR
[6] = test system: Rattus norvegicus; assay: AUC (infinity) in Sprague-Dawley rat at 2 mg/kg, po; format: ADME, organism-based; parameters: dose 2 mg/kg, route oral, time infinity; settings: in vivo
[7] = Half life in Sprague-Dawley rat at 2 mg/kg, po; format: ADME, organism-based; settings: in vivo
[8] = Oral bioavailability in Sprague-Dawley rat at 2 mg/kg; format: ADME, organism-based; settings: in vivo
[9] = Clearance in Sprague-Dawley rat at 1 mg/kg, iv; format: ADME, organism-based; settings: in vivo
[10] = Ratio of drug level in cerebrospinal fluid to brain in Sprague-Dawley rat at 1 mg/kg, iv after 0.5 hrs; format: ADME, organism-based, CSF/Brain; settings: in vivo
[11] = Tmax in Sprague-Dawley rat at 2 mg/kg, po; format: ADME, organism-based; settings: in vivo
[12] = target: T3, Orexin receptor type 2 (Homo sapiens) (UniProt O43614)
T3 sequence (whole entry): T1 sequence (O43614 whole entry)
Description: Binding affinity to orexin receptor-2 (unknown origin) assessed as dissociation half-life by Motulsky-Mahan radioligand binding assay

[13] = test system: Canis familiaris; assay: AUC (infinity) in beagle dog at 2 mg/kg, po; format: ADME, organism-based, Canis lupus familiaris; parameters: dose 2 mg/kg, route oral, time infinity; settings: in vivo
[14] = Oral bioavailability in beagle dog at 2 mg/kg; format: ADME, organism-based, Canis lupus familiaris; settings: in vivo
[15] = Clearance in beagle dog at 2 mg/kg, iv; format: ADME, organism-based, Canis lupus familiaris; settings: in vivo
[16] = target: Orexin/Hypocretin receptor type 2 (Homo sapiens) (UniProt O43614)
[17] = Half life in beagle dog at 2 mg/kg, po; format: ADME, organism-based, Canis lupus familiaris; settings: in vivo
[18] = Tmax in beagle dog at 2 mg/kg, po; format: ADME, organism-based, Canis lupus familiaris; settings: in vivo
[19] = Volume of distribution at steady state in beagle dog at 2 mg/kg, iv; format: ADME, organism-based, Canis lupus familiaris; settings: in vivo, read-out: Vdss
[20] = Plasma concentration in Sprague-Dawley rat plasma at 1 mg/kg, po after 1 hr; format: ADME, organism-based
[21] = target: T4, Orexin/Hypocretin receptor type 1 (Homo sapiens) (UniProt O43613)
T4 sequence (whole entry): T2 sequence (O43613 whole entry)

[22] = target: T3, Orexin receptor type 2 (Homo sapiens); remark: listed apart in the source
Description: Binding affinity to orexin receptor-2 (unknown origin) assessed as dissociation half-life by SPR assay

[23] = test system: Rattus norvegicus; assay: Antiinsomnic activity in CD1 rat assessed as effect on sleep architecture at 30 mg/kg, po administered at 18 hrs at circadian time; format: functional, organism-based
[24] = test system: Rattus norvegicus; assay: Ex-vivo receptor occupancy of orexin receptor-2 Sprague-Dawley rat frontal cortex using [3H]EMPA at 1 mg/kg, po after 1 hr by autoradiography relative to control; format: functional

Row | SMILES | Ki [1] | Ki [2] | half-life [3] | other results
1 | COc1cc(F)c(CN2C(=O)N(c3ccc(OC)c(OC)c3)S(=O)(=O)c3ccccc32)c(Cl)c1 | 0.1 nM | 0.398 nM | – | –
2 | COc1ccc(N2C(=O)N(Cc3c(F)cc(C)cc3Cl)c3ccccc3S2(=O)=O)cc1OC | 0.794 nM | 6.31 nM | – | –
3 | COc1ccc(N2C(=O)N(Cc3ccc(F)cc3Cl)c3ccccc3S2(=O)=O)cc1OC | 25.1 nM | > 2510 nM | – | –
4 | COc1ccc(N2C(=O)N(Cc3c(F)cccc3Cl)c3ccccc3S2(=O)=O)cc1OC | 0.794 nM | 7.94 nM | – | –
5 | COc1ccc(N2C(=O)N(Cc3c(F)cc(F)cc3OC)c3ccccc3S2(=O)=O)cc1OC | 6.31 nM | 63.1 nM | – | –
6 | COc1ccc(N2C(=O)N(Cc3c(F)cc(F)cc3F)c3ccccc3S2(=O)=O)cc1OC | 2 nM | 50.1 nM | – | –
7 | COc1cc(N2C(=O)N(Cc3c(F)cc(F)cc3F)c3ccccc3S2(=O)=O)cc(OC)n1 | 1.26 nM | 15.8 nM | 16 min | Vd [4]: 3.9 L/kg; Kp at 0.5 h [5]: 1.51; AUC [6]: 705 ng·h/mL; half-life [7]: 198 min; bioavailability [8]: 36%; clearance [9]: 17 mL/min/kg; Ratio ([10]; BLD = below limit of detection): BLD; Tmax [11]: 24 min
8 | COc1cc(N2C(=O)N(Cc3c(F)cc(F)cc3F)c3ccccc3S2(=O)=O)cnc1OC | 5.01 nM | 12.6 nM | 28 min | T1/2 [12]: 3 min; AUC [13]: 6960 ng·h/mL; Vd [4]: 2.2 L/kg; bioavailability [14]: 100%; Kp at 0.5 h [5]: 0.77; clearance [15]: 5 mL/min/kg; T1/2 [16]: 4.3 min; half-life [17]: 636 min; AUC [6]: 558 ng·h/mL; Tmax [18]: 24 min; half-life [7]: 96 min; bioavailability [8]: 29%; clearance [9]: 18 mL/min/kg; Vd [19]: 3.6 L/kg; Ratio [10]: 0.01; Tmax [11]: 90 min
9 | COc1cc(F)c(CN2C(=O)N(c3cnc(OC)c(OC)c3)S(=O)(=O)c3ccccc32)c(F)c1 | 0.398 nM | 2.51 nM | 9 min | –
10 | Cc1ccc(-n2nccn2)c(C(=O)N2CCN(c3nc4cc(Cl)ccc4o3)CC[C@H]2C)c1 [SUVOREXANT] | – | – | – | T1/2 [12]: 79 min; concentration at 1 h [20]: 22 ng/mL; T1/2 [21]: 24 min; T1/2 [22]: 3.5 h; Activity [23]: Active; Occ [24]: 31%
11 | COc1ccc(N2C(=O)N(Cc3ccc(Cl)cc3F)c3ccccc3S2(=O)=O)cc1OC | 10 nM | 63.1 nM | – | –
12 | COc1cc(F)c(CN2C(=O)N(c3cc(OC)nc(OC)c3)S(=O)(=O)c3ccccc32)c(F)c1 | 0.251 nM | 1 nM | 16 min | –
13 | COc1ccc(N2C(=O)N(Cc3c(F)cc(F)cc3F)c3ncccc3S2(=O)=O)nc1OC | 1.58 nM | 25.1 nM | 16 min | Vd [4]: 2.3 L/kg; Kp at 0.5 h [5]: 0.84; AUC [6]: 401 ng·h/mL; half-life [7]: 78 min; bioavailability [8]: 34%; clearance [9]: 29 mL/min/kg; Ratio [10]: 0.01; Tmax [11]: 30 min
14 | COc1ccc(N2C(=O)N(Cc3ccccc3)c3ccccc3S2(=O)=O)cc1OC | 79.4 nM | 2000 nM | – | –
15 | COc1ccc(N2C(=O)N(Cc3ccccc3F)c3ccccc3S2(=O)=O)cc1OC | 6.31 nM | 316 nM | – | –
16 | COc1cc(F)c(CN2C(=O)N(c3ccc(OC)c(OC)n3)S(=O)(=O)c3ccccc32)c(F)c1 | 0.2 nM | – | 8 min | –
17 | COc1ccc(N2C(=O)N(Cc3c(F)cc(F)cc3Cl)c3ccccc3S2(=O)=O)cc1OC | 1 nM | 25.1 nM | – | –
18 | COc1ccc(N2C(=O)N(Cc3ccc4c(c3)OCO4)c3ccccc3S2(=O)=O)cc1OC | 251 nM | – | – | –
19 | COc1cc(N2C(=O)N(Cc3c(F)cc(F)cc3Cl)c3ccccc3S2(=O)=O)cnc1OC | 1.58 nM | 39.8 nM | 23 min | Vd [4]: 3.5 L/kg; Kp at 0.5 h [5]: 0.79; AUC [6]: 300 ng·h/mL; half-life [7]: 108 min; bioavailability [8]: 29%; clearance [9]: 34 mL/min/kg; Ratio [10]: 0.02; Tmax [11]: 48 min
20 | COc1cc(F)c(CN2C(=O)N(c3ccc(OC)c(OC)c3)S(=O)(=O)c3ccccc32)c(F)c1 | 0.501 nM | 2 nM | – | –
21 | CNc1cc(N2C(=O)N(Cc3c(F)cc(OC)cc3F)c3ncccc3S2(=O)=O)cnc1OC | 0.631 nM | 1.26 nM | 7 min | –
22 | COc1ccc(-n2c(=O)c3ccccc3n(Cc3ccccc3Cl)c2=O)cc1OC | > 10000 nM | > 6310 nM | – | –
23 | COc1cc(N2C(=O)N(Cc3c(F)cc(F)cc3F)c3ccccc3S2(=O)=O)ccn1 | 63.1 nM | 398 nM | 23 min | –
